Experimental findings from PubChem BioAssay (NCI) are described below.

Experiment in all cases: NCI anticancer screen, dose series, 48 h
Assay [1] relates to NCI-H460 lung.
In assay [2] the test system is NCI-H522 lung.
Assay [3] concerns MOLT-4 leukemia.
Assay [4] has as its system HT29 colon.
In assay [5] the test system is OVCAR-3 ovarian.
Assay [6] concerns CCRF-CEM leukemia.
The subject of assay [7] is EKVX NSCLC.
The test system of assay [8] is M14 melanoma.
Assay [9] concerns KM20L2 colon.
Assay [10] concerns LXFL 529 NSCLC.

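Five compound concentrations were applied to cells in 96-well plates for 48 hours; endpoints were derived by simple linear interpolation of the resulting dose-response curve. At the GI50, growth is halved. At the TGI there is no net growth.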

In the case of `CC(=O)OC(C)(C)/C(C)=C/C(=O)O[C@H]1C(=O)O[C@@H]2C[C@H]3[C@H](C)C(=O)C(O[C@@H]4O[C@H](CO)[C@@H](O)[C@H](O)[C@H]4O)=C[C@]3(C)[C@H]3[C@@H](O)[C@H](O)[C@@]4(C(=O)O)OC[C@]32[C@@H]14`, the GI50 in assay [1] is 39.5 µM; in [2], 18.7 µM; in assay [3] it was 33.9 µM; in [4], more than 100 µM; in assay [5], 25.9 µM; in assay [6], 43.8 µM. Moreover, the GI50 in assay [7] and in assay [8] was more than 100 µM in each case. For the same molecule, the TGI in [1] was more than 100 µM; in [2], 49.5 µM; in assay [3], more than 100 µM; in assay [4], more than 100 µM; in [5], more than 100 µM; in assay [6], more than 100 µM. For the same molecule, the TGI in assay [7] and in assay [8] was more than 100 µM each time.

As for `CC(C)=CCC[C@](C)(O)[C@H]1CC[C@]2(C)[C@@H]1CC[C@@H]1[C@@]3(C)CC/C(=N/O)C(C)(C)[C@@H]3CC[C@]12C`, the GI50 in [1] was 5.54 µM; in [2], 13.5 µM; in [3] it was 10.1 µM; in assay [4], 3.41 µM; in assay [5], 10.6 µM; in assay [6] it was 14.2 µM. Besides, the results for the GI50 in assay [7] and in [8] were 10.1 µM and 16.3 µM, respectively. The TGI in assay [1] is more than 100 µM; in [2], 99 µM; in assay [3], more than 100 µM; in assay [4], 20.8 µM; in assay [5], 39.2 µM; in assay [6], more than 100 µM. Moreover, the TGI in [7] and in assay [8] was more than 100 µM each time.

With `O=C(Cc1ccc(F)c(F)c1)Nc1cc(C2(C(F)(F)F)CC2)nn1Cc1ccccc1`, the GI50 in assay [1] is 3.16 µM; in [2] it was 3.08 µM; in assay [3], 3.96 µM; in [4] it was 3.74 µM; in assay [5] it was 3.85 µM; in [6], 4.79 µM. Also, the GI50 in assay [7] is 2.98 µM; in assay [8], 5.66 µM. The TGI in [1] is 7.58 µM; in assay [2] it was 9.89 µM; in assay [3], 13.8 µM; in assay [4], more than 15 µM; in assay [5], 14.5 µM; in assay [6] it was more than 15 µM. Besides, the results for the TGI in assay [7] and in [8] were 12.2 µM and more than 15 µM, respectively.

For the molecule `CCOC(=O)N1CCC(=O)C(CNC23CC4CC(CC(C4)C2)C3)C1` (stereo unspecified), the TGI in [9] is more than 100 µM; in assay [1] it was more than 100 µM; in [2], 34 µM; in assay [10] it was 33.3 µM; in [3], 38.9 µM; in assay [4], 43.7 µM. Also, the TGI in assay [6] was 35.9 µM; in assay [7], more than 100 µM.

Take `COC(=O)C(C(=O)C(=O)Nc1ccc([N+](=O)[O-])cc1[N+](=O)[O-])c1nc2ccc(Cl)cc2[nH]c1=O` (stereo unspecified): the TGI in assay [9], in assay [1], in assay [3], in assay [4], in [5] and in assay [6] was more than 100 µM in each case. Also, the TGI in assay [7] and in assay [8] was more than 100 µM throughout.

Regarding `CC(C)O/N=C/c1cc(NC(=S)OC(C)C)ccc1Cl`, the TGI is more than 100 µM in [1]; more than 67.4 µM in assay [2]; 48.8 µM in [3]; 66.3 µM in assay [4]; more than 52.6 µM in assay [5]; 34.6 µM in assay [6]. Besides, the TGI in assay [7] was more than 75.2 µM; in assay [8], more than 95.6 µM.

In the case of `Cc1ccc(S(=O)(=O)NC2(C=O)CCCC3CCCCC32)cc1` (stereo unspecified), the TGI in assay [9], in assay [1], in assay [2], in [10], in assay [3] and in [5] was more than 100 µM in each case. For the same molecule, the TGI in assay [6] and in [8] was more than 100 µM throughout.

For `CC(=O)C1=C(O)C=C2Oc3c(C(=O)/C=C/c4c(Cl)cccc4Cl)c(O)c(C)c(O)c3[C@]2(C)C1=O`, the GI50 in assay [1] is 1.17 µM; in assay [2], 0.46 µM; in assay [3], 0.666 µM; in assay [4] it was 1.73 µM; in assay [5], 1.12 µM; in [6], 0.573 µM. Besides, the figures for the GI50 in assay [7] and in assay [8] were 1.63 µM and 0.961 µM, respectively. In addition, the TGI was 4.46 µM in assay [1]; 2.77 µM in [2]; 8.57 µM in assay [3]; 6.23 µM in assay [4]; 4.22 µM in assay [5]; 5.43 µM in assay [6]. Also, the TGI in assay [7] is 7.24 µM; in assay [8], 3.83 µM.

`S=C(Nc1ccc(-c2nc3ccccc3[nH]2)cc1)Nc1ccc(-c2nc3ccccc3[nH]2)cc1`: the GI50 in assay [1] was 65 µM; in assay [2], 24.5 µM; in [3], 43.8 µM; in assay [4], more than 100 µM; in [5], 48.9 µM; in assay [6], 92 µM. Moreover, the GI50 was more than 100 µM in [7] and 60.3 µM in [8]. Also, the TGI is more than 100 µM in assay [1]; 99.4 µM in [2]; more than 100 µM in [3]; more than 100 µM in assay [4]; more than 100 µM in [5]; more than 100 µM in [6]. Besides, the TGI in assay [7] and in assay [8] was more than 100 µM in each case.

In the case of `CCOC(=O)C1c2[nH]c3ccccc3c2CCN1C(=O)c1ccc(OC)o1` (stereo unspecified), the TGI in [1], in assay [2], in assay [3], in assay [4], in [5] and in [6] was more than 10 µM in each case. Also, the TGI in assay [7] and in [8] was more than 10 µM each time.

Turning to `CNC(=O)c1ccccc1Nc1nc(Nc2cc(OC)c(OC)c(OC)c2)ncc1Br`, the GI50 in [1] is 0.0291 µM; in assay [2] it was 0.0417 µM; in assay [3] it was 0.0501 µM; in [4], 0.0161 µM; in [5], 0.0695 µM; in [6], 0.0523 µM. Also, the results for the GI50 in assay [7] and in assay [8] were 0.0308 µM and 0.0191 µM, respectively. The TGI is 1.37 µM in assay [1]; 1.85 µM in assay [2]; 5.75 µM in assay [3]; 12.7 µM in assay [4]; 25 µM in [5]; more than 19.9 µM in [6]. Besides, the TGI in assay [7] was determined as 1.01 µM; in assay [8] it was 1.38 µM.
